Earlier results on two substances are cited in patent US20230330185A1, “METHODS AND COMPOSITIONS FOR TRANSDUCING HEMATOPOIETIC STEM AND PROGENITOR CELLS IN VIVO” (Magenta Therapeutics, Inc., priority 2020, published 2023).

The subject of this data set is hematopoietic stem and progenitor cells. Particulars: as described in U.S. Pat. No. 6,080,398 and 6,447,766; cited from earlier work.

For “Gro-β T N65D: variant of Gro-β T with aspartic acid in place of asparagine at position 65, SEQ ID NO: 4”, the “potency to induce hematopoietic stem and progenitor cell mobilization, relative to parent peptide” value is listed as “substantially greater than that of Gro-β T”. On to “Gro-β T: truncated Gro-β with deletion of the first four N-terminal amino acids, SEQ ID NO: 2; CXCR2 agonist”, for which the “potency to induce hematopoietic stem and progenitor cell mobilization, relative to parent peptide” value is reported as “superior to that of Gro-β by multiple orders of magnitude”.
